{"source": "paper PMC11375437", "about": "“Selective labelling of GBA2 in cells with fluorescent β-D-arabinofuranosyl cyclitol aziridines” (Chemical Science, 2024)", "target": "T1, GBA2 (Homo sapiens, UniProt Q9HCG7)", "T1 sequence (Q9HCG7 1-927)": "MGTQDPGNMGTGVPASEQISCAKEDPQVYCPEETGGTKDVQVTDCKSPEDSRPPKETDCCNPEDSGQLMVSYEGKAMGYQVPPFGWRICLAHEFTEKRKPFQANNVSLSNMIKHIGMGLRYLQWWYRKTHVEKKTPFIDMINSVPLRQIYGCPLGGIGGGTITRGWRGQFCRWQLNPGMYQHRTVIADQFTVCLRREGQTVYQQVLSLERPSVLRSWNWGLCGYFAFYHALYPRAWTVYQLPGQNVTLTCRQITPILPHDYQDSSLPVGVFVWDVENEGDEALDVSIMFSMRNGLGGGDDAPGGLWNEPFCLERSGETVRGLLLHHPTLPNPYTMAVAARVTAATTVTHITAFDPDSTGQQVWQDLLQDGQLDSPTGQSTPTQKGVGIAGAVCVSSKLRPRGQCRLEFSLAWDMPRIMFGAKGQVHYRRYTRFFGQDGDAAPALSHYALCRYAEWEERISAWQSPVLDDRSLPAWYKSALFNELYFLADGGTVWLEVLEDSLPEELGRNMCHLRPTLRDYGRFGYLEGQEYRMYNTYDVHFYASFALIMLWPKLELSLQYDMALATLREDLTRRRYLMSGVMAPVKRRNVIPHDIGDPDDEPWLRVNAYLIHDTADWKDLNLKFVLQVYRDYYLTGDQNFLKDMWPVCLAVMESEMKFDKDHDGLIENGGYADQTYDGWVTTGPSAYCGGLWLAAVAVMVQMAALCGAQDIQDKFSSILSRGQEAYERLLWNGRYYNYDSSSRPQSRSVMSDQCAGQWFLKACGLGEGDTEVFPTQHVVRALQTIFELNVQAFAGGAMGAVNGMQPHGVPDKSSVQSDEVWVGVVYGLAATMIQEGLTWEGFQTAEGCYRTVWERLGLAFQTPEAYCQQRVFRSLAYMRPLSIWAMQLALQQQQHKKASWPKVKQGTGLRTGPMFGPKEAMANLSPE", "experiment": "In situ labelling of wild-type HEK293T cells, GBA2", "type": "cell-based", "design": "endogenous in cells; host or cells: wild-type HEK293T", "details": "wild-type HEK293T intact cells; 24 h incubation", "description": "Importantly, the GBA2 selectivity of β-D-Araf ABPs 3–5 was maintained during in situ labelling of wild-type HEK293T cells (ESI Fig. S9 ^†). […] Even after 24 h incubation, similar results were obtained: ABP 4 selectively labelled GBA2 at 10 nM, with only slight concomitant GBA1 labelling at concentrations higher than 100 nM (ESI Fig. S10 ^†). Selective GBA2 labelling by ABP 3 and 4 finally was also observed in human retinal pigment epithelial-1 cells (Fig. 5C).\nFigure S9. Fluorescent gel images of in situ labelling of wild-type HEK293T cells by β-D-Araf aziridine ABPs 3-5.\nβ-D-Araf ABPs were firstly incubated with intact wild-type HEK293T cells for 1 or 2.5 h (1st incubation) and then cells were harvested. […]\n2.12 Reactivity of β-D-Araf aziridines towards GBA2 orthologue in other species β-D-Araf aziridine ABP 3-5 or ABP 7 was incubated with homogenates of zebrafish (Danio rerio) larvae or mice brain for 1 h at 37 °C. […] The zebrafish homogenates were passed through a desalting column (in the same way as described for the irreversibility evaluation above) to remove interference from biological pigments when scanning at λEX 473 nm and λEM ≥ 510 nm for BODIPY green fluorescence. […]"}
{"molecule": "COc1ccc(C2=[N+]3C(=C(CCCCc4cn(CCCCCCCCN5[C@@H]6[C@H](CO)[C@@H](O)[C@H](O)[C@@H]65)nn4)c4ccc(-c5ccc(OC)cc5)n4[B-]3(F)F)C=C2)cc1", "note": "(stereo partly shown) [ABP 4]", "values": [{"measurement": "Concentration at which GBA2 is selectively labelled in situ", "result": 10, "unit": "nM"}]}
